Experimental data: ChEMBL document CHEMBL2216752, “Carnitine palmitoyltransferase (CPT) modulators: a medicinal chemistry perspective on 35 years of research” (J Med Chem, 2011)
Blank lines part the entries; values can stand above or below the compound they belong to.

Key:
[1] = target: T1, Carnitine O-palmitoyltransferase 1, liver isoform (Homo sapiens) (UniProt P50416); test: Increase in CPT1 activity in human MCF7 cells assessed as increase in radiolabeled palmitoylcarnitine at 31 uM; format: cell-based
T1 sequence (whole entry): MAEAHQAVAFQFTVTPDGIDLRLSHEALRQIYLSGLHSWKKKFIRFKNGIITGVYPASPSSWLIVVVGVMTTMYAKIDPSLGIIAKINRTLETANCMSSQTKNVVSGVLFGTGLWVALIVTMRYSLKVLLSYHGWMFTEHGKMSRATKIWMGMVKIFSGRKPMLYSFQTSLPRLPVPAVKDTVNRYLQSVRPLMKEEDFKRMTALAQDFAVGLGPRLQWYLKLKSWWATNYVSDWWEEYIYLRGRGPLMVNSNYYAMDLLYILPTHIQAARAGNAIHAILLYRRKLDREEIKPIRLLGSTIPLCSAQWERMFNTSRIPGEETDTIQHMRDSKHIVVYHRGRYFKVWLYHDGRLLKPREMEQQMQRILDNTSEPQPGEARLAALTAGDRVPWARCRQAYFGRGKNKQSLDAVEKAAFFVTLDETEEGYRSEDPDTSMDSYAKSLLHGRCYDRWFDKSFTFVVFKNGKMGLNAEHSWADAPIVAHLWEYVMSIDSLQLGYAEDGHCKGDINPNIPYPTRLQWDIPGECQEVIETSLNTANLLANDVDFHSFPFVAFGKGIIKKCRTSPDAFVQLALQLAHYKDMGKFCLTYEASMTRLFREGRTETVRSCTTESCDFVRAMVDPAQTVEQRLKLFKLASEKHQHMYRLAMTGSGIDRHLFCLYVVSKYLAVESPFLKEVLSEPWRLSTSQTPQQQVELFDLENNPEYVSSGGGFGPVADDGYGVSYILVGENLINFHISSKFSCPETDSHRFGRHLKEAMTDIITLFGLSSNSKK

[2] = target: T1, Carnitine O-palmitoyltransferase 1, liver isoform (Homo sapiens); test: Increase in CPT1 activity in human MCF7 cells assessed as increase in radiolabeled palmitoylcarnitine relative to untreated control; format: cell-based
Hepatocyte = test: Stimulation of FAO in hepatocytes at 28 uM; format: cell-based
[3] = target: T2, Carnitine O-palmitoyltransferase 1, liver isoform (Homo sapiens, UniProt P50416); test: Increase in CPT1 activity in human MCF7 cells assessed as increase in radiolabeled palmitoylcarnitine; format: cell-based
T2 sequence (P50416 whole entry): T1 sequence (whole entry)

[4] = target: T1, Carnitine O-palmitoyltransferase 1, liver isoform (Homo sapiens); test: Increase in CPT1A activity in hepatocytes at 60 uM; format: cell-based; conditions: Hepatocyte
Rattus norvegicus [5] = test: Toxicity in rat assessed as induction of heart muscle enlargement at 200 mg/kg/day for 12 weeks administered through food admix; format: organism-based, Muscle tissue; conditions: in vivo, 2016 h
[6] = Competitive inhibition of carnitine palmitoyltransferase using palmitoyl-CoA
[7] = Inhibition of carnitine palmitoyltransferase in 18 hr fasted rat liver homogenates; format: tissue-based
[8] = Inhibition of carnitine palmitoyltransferase in 18 hr fasted rat hepatocytes; format: cell-based; conditions: hepatocyte
Rattus norvegicus [9] = test: Reduction in KB level in Sprague-Dawley rat at 0.44 mg/kg, po; format: functional; parameters: scale not given: the % may be the effect or the level left
[10] = Inhibition of carnitine palmitoyltransferase in rat liver mitochondria assessed as conversion of [14C]palmitic acid to [14C]palmitoylcarnitine by radiometric assay
[11] = Inhibition of carnitine palmitoyltransferase in rat heart mitochondria assessed as conversion of [14C]palmitic acid to [14C]palmitoylcarnitine by radiometric assay
Rattus norvegicus [12] = test: Reduction in glucose level in Sprague-Dawley rat at 88 mg/kg, po; format: functional; parameters: scale not given: the % may be the effect or the level left
[13] = target: Carnitine O-palmitoyltransferase 1, liver isoform (Rattus norvegicus) (UniProt P32198); test: Maximal inhibition of CPT1A in rat liver mitochondria
Chain of Carnitine O-palmitoyltransferase 1, liver isoform (Rattus norvegicus) (P32198 whole entry, looked up, canonical isoform): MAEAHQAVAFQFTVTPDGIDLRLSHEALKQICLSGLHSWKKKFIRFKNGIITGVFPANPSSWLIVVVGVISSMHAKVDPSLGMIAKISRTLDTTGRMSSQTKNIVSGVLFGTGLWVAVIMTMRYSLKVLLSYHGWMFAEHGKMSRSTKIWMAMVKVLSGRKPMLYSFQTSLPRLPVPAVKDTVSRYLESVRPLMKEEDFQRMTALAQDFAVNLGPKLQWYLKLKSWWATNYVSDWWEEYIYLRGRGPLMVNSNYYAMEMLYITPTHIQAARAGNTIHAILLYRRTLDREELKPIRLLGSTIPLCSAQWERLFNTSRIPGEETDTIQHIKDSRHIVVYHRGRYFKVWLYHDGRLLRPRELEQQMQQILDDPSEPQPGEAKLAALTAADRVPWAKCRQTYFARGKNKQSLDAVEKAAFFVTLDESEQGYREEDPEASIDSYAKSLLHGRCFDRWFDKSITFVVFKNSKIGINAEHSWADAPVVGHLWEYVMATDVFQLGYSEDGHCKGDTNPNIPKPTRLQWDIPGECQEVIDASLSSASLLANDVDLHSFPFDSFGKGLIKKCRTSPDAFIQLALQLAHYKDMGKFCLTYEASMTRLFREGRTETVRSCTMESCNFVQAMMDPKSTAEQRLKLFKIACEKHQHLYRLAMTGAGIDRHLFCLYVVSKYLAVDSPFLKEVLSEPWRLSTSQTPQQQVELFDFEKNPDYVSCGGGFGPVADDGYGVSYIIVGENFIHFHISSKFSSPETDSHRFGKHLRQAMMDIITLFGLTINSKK

[14] = target: Carnitine O-palmitoyltransferase 1, muscle isoform (Rattus norvegicus) (UniProt Q63704); test: Maximal inhibition of CPT1B in rat muscle mitochondria; conditions: Muscle tissue
Chain of Carnitine O-palmitoyltransferase 1, muscle isoform (Rattus norvegicus) (Q63704 whole entry, canonical isoform): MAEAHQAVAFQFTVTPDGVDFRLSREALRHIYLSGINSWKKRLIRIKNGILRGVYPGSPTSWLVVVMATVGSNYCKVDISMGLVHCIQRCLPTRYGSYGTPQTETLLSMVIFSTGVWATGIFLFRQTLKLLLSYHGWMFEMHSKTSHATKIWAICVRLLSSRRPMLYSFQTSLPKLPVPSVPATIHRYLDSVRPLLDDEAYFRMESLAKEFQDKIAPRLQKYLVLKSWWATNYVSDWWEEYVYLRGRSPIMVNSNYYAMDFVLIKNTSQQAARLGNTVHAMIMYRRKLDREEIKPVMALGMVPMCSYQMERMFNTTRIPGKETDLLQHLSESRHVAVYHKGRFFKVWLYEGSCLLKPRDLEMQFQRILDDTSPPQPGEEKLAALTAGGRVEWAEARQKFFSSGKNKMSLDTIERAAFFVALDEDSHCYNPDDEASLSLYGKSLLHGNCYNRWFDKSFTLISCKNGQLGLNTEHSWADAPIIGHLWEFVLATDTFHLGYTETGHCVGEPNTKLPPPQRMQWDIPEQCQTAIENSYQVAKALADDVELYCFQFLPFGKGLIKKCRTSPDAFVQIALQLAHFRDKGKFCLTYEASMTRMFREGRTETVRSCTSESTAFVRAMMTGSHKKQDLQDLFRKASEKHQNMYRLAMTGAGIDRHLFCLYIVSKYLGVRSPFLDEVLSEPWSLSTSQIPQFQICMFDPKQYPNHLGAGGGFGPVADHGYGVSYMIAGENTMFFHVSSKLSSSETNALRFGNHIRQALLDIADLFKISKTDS

Sus scrofa = organism: Sus scrofa; test: Increase in glucose metabolic clearance rate in pig using [U14C,3-3H]glucose; format: functional
[15] = Inhibition of human FAO
[16] = Inhibition of rat FAO

Structure (SMILES): O=C([O-])[C@@]1(CCCCCc2ccc(Cl)cc2)CO1.[Na+] [CLOMIXIR]
Activity (Rattus norvegicus [5]): 15%

Structure (SMILES): O=C(O)[C@@]1(CCCCCCOc2ccc([N+](=O)[O-])cc2[N+](=O)[O-])CO1
Imax [13]: 5 µM
Imax [14]: > 60 µM

Structure (SMILES): CCOC(=O)[C@@]1(CCCCCCOc2ccc(Cl)cc2)CO1 [ETOMOXIR]
Activity (Sus scrofa): 126%
IC50 [15]: 0.29 µM
IC50 [16]: 0.34 µM

Second part, led by results:

Activity [1]: 177%
Activity [2]: 140%
EC50 [3]: 3 µM
Activity [4]: 150%
Structure (SMILES): C=CCC1(CC=C)C(=O)S[C@](C)(CCCCCCCC)C1=O
Activity (Hepatocyte): 150%

Ki [6]: 3.6 µM
IC50 [7]: 36 µM
IC50 [8]: 3 µM
IC50 [10]: 17.4 µM
IC50 [11]: 62 µM
Structure (SMILES): CCCCCCCCCCCCCCOP(=O)([O-])O[C@H](CC(=O)O)C[N+](C)(C)C
Activity (Rattus norvegicus [9]): 77%
Activity (Rattus norvegicus [12]): 20%
